# According to PMC9592870 (Molecular Diversity, 2022):
# Tested on: DR-Mtb strains
# Test: microbe, parasite or virus in culture
# Type: cell-based
# Conditions: Mycobacterium tuberculosis, read-out: MIC against all DR-Mtb strains
row,SMILES,MIC
1,"COC(=O)c1cc(-c2ccc(NC(=O)Nc3ccc(Cl)c(Cl)c3)cc2)on1 [4tb, Methyl 5-(4-(3-(3,4-dichlorophenyl)ureido)phenyl)isoxazole-3-carboxylate]",1 to 4 µg/mL
2,"COC(=O)c1cc(-c2cccc(NC(=O)Nc3ccc(Cl)c(Cl)c3)c2)on1 [4t, Methyl 5-(3-(3-(3,4-dichlorophenyl)ureido)phenyl)isoxazole-3-carboxylate]",0.5 to 4 µg/mL
3,"COC(=O)c1cc(-c2cccc(NC(=S)Nc3ccc(Cl)cc3)c2)on1 [5f, Methyl 5-(3-(3-(4-chlorophenyl)thioureido)phenyl)isoxazole-3-carboxylate]",0.5 to 4 µg/mL
